Our source for the inhibition, Activity and IC50 values is ChEMBL document CHEMBL4665704, “Carneic Acids from an Endophytic Phomopsis sp. as Dengue Virus Polymerase Inhibitors” (J Nat Prod, 2020).

SMILES strings stand for the structures.

For assay [1], the system named is Dengue virus. In words: Inhibition of DENV RNA-dependent RNA polymerase at 10 ug/ml. Particulars: dose 10.0 µg/ml.
Assay [2] concerns Zika virus. The assay is described as follows: Inhibition of NS5 in Zika virus at 10 ug/ml after 10 mins in presence of nucleotide mix by fluorescence assay. Particulars: dose 10.0 µg/ml.
A further assay relates to MRC5. The assay is described as follows: Antiproliferative activity against human MRC5 cells at 10 ug/ml after 72 hrs by resazurin dye-based spectrophotometric analysis relative to control. Type of assay: functional. Particulars: dose 10 µg/ml. (In general: Resazurin is reduced to fluorescent resorufin, in cell work by metabolically active cells.)
Assay [3] relates to Dengue virus. The assay is described as follows: Inhibition of DENV RNA-dependent RNA polymerase at 1 ug/ml. Particulars: dose 1.0 µg/ml.
Assay [4] concerns Zika virus. In words: Inhibition of NS5 in Zika virus at 50 ug/ml after 10 mins in presence of nucleotide mix by fluorescence assay. Particulars: dose 50.0 µg/ml.
Assay [5] concerns Zika virus. The assay is described as follows: Inhibition of NS5 in Zika virus at 1 ug/ml after 10 mins in presence of nucleotide mix by fluorescence assay. Particulars: dose 1.0 µg/ml.
Assay [6] relates to Dengue virus. In words: Inhibition of DENV RNA-dependent RNA polymerase at 50 ug/ml. Particulars: dose 50.0 µg/ml.
Assay [7] is described as follows: Inhibition of DENV RNA-dependent RNA polymerase. Also noted: species or system Dengue virus.
Assay [8] concerns Dengue virus. The assay is described as follows: Inhibition of DENV RNA-dependent RNA polymerase at 10 uM.

Broadly, the inhibition is the percentage by which the read-out fell short of the control. On to `CC(=O)OC/C=C(\C)[C@@H]1C(C)=C[C@@H]2C[C@H](O)C[C@H](C)[C@H]2[C@@H]1/C=C/C=C/C(=O)O`, for which the inhibition came to 28.9% in the assay with Dengue virus [1]; 3.3% in the assay with Zika virus [2]; 4.7% in the assay on Dengue virus [3]; 32% in the assay on Zika virus [4]; 0% in the assay with Zika virus [5]; 52.3% in the assay with Dengue virus [6]. The compound further came in with an Activity in the assay on MRC5 of 98.5%.

Regarding `CC(=O)OC/C=C(\C)[C@@H]1C(C)=C[C@@H]2CC[C@@H](O)[C@H](C)[C@H]2[C@@H]1/C=C/C=C/C(=O)O`, the inhibition was determined as 40.2% with Dengue virus [1]; 18.1% in the assay on Zika virus [2]; 26% in the assay on Dengue virus [3]; 39.6% in the assay on Zika virus [4]; 5.4% in the assay on Zika virus [5]; 48.7% in the assay with Dengue virus [6]. The Activity in the assay on MRC5 is 93.5%.

As usually defined, the IC50 is the concentration that inhibits the measured activity by half. A higher IC50 goes with lower potency. Take `C/C=C(\C)[C@@H]1C(C)=C[C@@H]2C[C@H](O)C[C@H](C)[C@H]2[C@@H]1/C=C/C=C/C(=O)O`: the inhibition with Dengue virus [1] is 46%; with Zika virus [2], 27.6%; in the assay on Dengue virus [3], 6.4%; in the assay with Zika virus [4], 50.9%; in the assay on Zika virus [5] it was 4.9%; with Dengue virus [6] it was 85%. This compound had an IC50 in assay [7] of 19 µM. Also, in the assay with MRC5, the Activity was 99%.

With `CC(=O)OC/C=C(\C)[C@@H]1C(C)=C[C@@H]2CC[C@H](O)[C@H](C)[C@H]2[C@@H]1/C=C/C=C/C(=O)O`, the inhibition is 61% in the assay on Dengue virus [1]; 20.7% in the assay with Zika virus [2]; 10.5% in the assay with Dengue virus [3]; 56.3% in the assay with Zika virus [4]; 3% in the assay with Zika virus [5]; 85.4% in the assay with Dengue virus [6]. This compound also registered an IC50 in assay [7] of 13.6 µM. This compound came in with an Activity with MRC5 of 95.6%.

As to `CC1=C[C@@H]2C[C@H](O)C[C@H](C)[C@H]2[C@H](/C=C/C=C/C(=O)O)[C@@H]1/C(C)=C/CO`, the inhibition in the assay with Dengue virus [1] was 28.7%; with Zika virus [2], 5.5%; in the assay with Dengue virus [3], 6.5%; in the assay on Zika virus [4], 18.4%; with Zika virus [5], 8.5%; with Dengue virus [6], 43.9%. The Activity in the assay on MRC5 came out at 85.8%.

As for `CC1=C[C@@H]2C[C@@H](O)C[C@H](C)[C@H]2[C@H](/C=C/C=C/C(=O)O)[C@@H]1/C(C)=C/CO`, the inhibition with Dengue virus [1] stood at 49%; in the assay with Zika virus [2], 6%; with Dengue virus [3], 2%; in the assay with Zika virus [4], 15%; with Zika virus [5], 15.2%; with Dengue virus [6] it was 42.8%. The Activity in the assay on MRC5 was found to be 79.3%.

`Nc1ncnc2c1ncn2[C@@H]1O[C@H](COP(=O)(O)OP(=O)(O)OP(=O)(O)O)C[C@H]1O` yielded an inhibition in the assay with Dengue virus [8] of 96.1%.

Take `C/C=C(\C)[C@@H]1C(C)=C[C@@H]2C[C@@H](O)C[C@H](C)[C@H]2[C@@H]1/C=C/C=C/C(=O)O`: the inhibition with Dengue virus [1] was determined as 59.4%; in the assay with Zika virus [2] it was 23.3%; with Dengue virus [3], 15.3%; with Zika virus [4] it was 40.9%; in the assay on Zika virus [5], 9.6%; in the assay with Dengue virus [6], 78.1%. The IC50 in assay [7] worked out at 19 µM. Also, in the assay on MRC5, the Activity was determined as 97%.

For `CC1=C[C@@H]2CCC[C@H](C)[C@H]2[C@H](/C=C/C=C/C(=O)O)[C@@H]1/C(C)=C/CO`, the inhibition with Dengue virus [1] amounted to 51.2%; in the assay with Zika virus [2], 21%; in the assay with Dengue virus [3], 13.2%; with Zika virus [4] it was 38.3%; with Zika virus [5] it was 0%; in the assay with Dengue virus [6], 75.5%. In addition, in [7], the half-inhibitory concentration (IC50) was determined as 37.5 µM. This compound also returned an Activity in the assay on MRC5 of 100%.

Consider `CC1=C[C@@H]2CC(=O)C[C@H](C)[C@H]2[C@H](/C=C/C=C/C(=O)O)[C@@H]1/C(C)=C/CO`, for which the inhibition in the assay with Dengue virus [1] is 23.8%; with Zika virus [2] it was 0%; with Dengue virus [3] it was 0%; in the assay on Zika virus [4] it was 25.5%; in the assay on Zika virus [5], 0%; with Dengue virus [6], 36.7%. Moreover, the Activity in the assay with MRC5 came to 100%.

Consider `C/C=C(\C)[C@@H]1C(C)=C[C@@H]2C[C@@H](OC(C)=O)C[C@H](C)[C@H]2[C@@H]1/C=C/C=C/C(=O)O`, for which the inhibition in the assay with Dengue virus [1] is 62.3%; in the assay with Zika virus [2] it was 21.5%; with Dengue virus [3] it was 2.8%; in the assay on Zika virus [4], 47.7%; with Zika virus [5], 1.2%; in the assay on Dengue virus [6] it was 88.9%. In addition, the IC50 in assay [7] is 15.5 µM. This compound also came in with an Activity in the assay with MRC5 of 91.9%.

For `C/C=C(\C)[C@@H]1C(C)=C[C@@H]2CC(=O)C[C@H](C)[C@H]2[C@@H]1/C=C/C=C/C(=O)O`, the inhibition was 65.6% with Dengue virus [1]; 24.4% in the assay on Zika virus [2]; 7.9% in the assay on Dengue virus [3]; 49.9% in the assay with Zika virus [4]; 6.3% with Zika virus [5]; 85.1% with Dengue virus [6]. The compound further displayed a half-maximal inhibitory concentration (IC50) in assay [7] of 11.8 µM. This compound also returned an Activity with MRC5 of 96.9%.

Regarding `CC1=C[C@@H]2CC[C@@H](O)[C@H](C)[C@H]2[C@H](/C=C/C=C/C(=O)O)[C@@H]1/C(C)=C/CO`, the inhibition with Dengue virus [1] is 29.7%; in the assay with Zika virus [2] it was 8%; with Dengue virus [3] it was 0%; in the assay with Zika virus [4], 33.7%; in the assay with Zika virus [5] it was 4.8%; with Dengue virus [6], 42%. In the assay with MRC5, this compound registered an Activity of 98.1%.

For `CC(=O)OC/C=C(\C)[C@@H]1C(C)=C[C@@H]2CC(=O)C[C@H](C)[C@H]2[C@@H]1/C=C/C=C/C(=O)O`, the inhibition was determined as 36.4% in the assay with Dengue virus [1]; 19.3% in the assay with Zika virus [2]; 0% with Dengue virus [3]; 25.4% in the assay with Zika virus [4]; 13.8% in the assay with Zika virus [5]; 64.6% in the assay on Dengue virus [6]. This compound also had an Activity in the assay with MRC5 of 98.8%.
